{"source": "patent US12227488B2", "about": "“Small molecule degraders of Helios and methods of use” (DANA-FARBER CANCER INSTITUTE, INC., priority 2018, dated 2025)", "key": {"IKZF2": {"tested_on": "IKZF2", "experiment": "Cellular degradation assay, eGFP-IKZF2Δ fusion with mCherry reporter in Flp-In 293 cells", "format": "cell-based", "settings": "5 h incubation, n=1", "summary_of_the_method": "(§1)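 DC50,5 h derived by variable-slope nonlinear fit of the per-well ratio of GFP-positive to mCherry-positive cells, imaged after 5 h compound exposure at 0.5% DMSO.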"}, "CRBN and Helios (IKZF2)": {"target": "T1, CRBN and Helios (IKZF2) (Homo sapiens, UniProt Q96SW2+Q9UKS7)", "T1 construct": "His (N); Strep (N)", "T1 sequence (Q96SW2 whole entry)": "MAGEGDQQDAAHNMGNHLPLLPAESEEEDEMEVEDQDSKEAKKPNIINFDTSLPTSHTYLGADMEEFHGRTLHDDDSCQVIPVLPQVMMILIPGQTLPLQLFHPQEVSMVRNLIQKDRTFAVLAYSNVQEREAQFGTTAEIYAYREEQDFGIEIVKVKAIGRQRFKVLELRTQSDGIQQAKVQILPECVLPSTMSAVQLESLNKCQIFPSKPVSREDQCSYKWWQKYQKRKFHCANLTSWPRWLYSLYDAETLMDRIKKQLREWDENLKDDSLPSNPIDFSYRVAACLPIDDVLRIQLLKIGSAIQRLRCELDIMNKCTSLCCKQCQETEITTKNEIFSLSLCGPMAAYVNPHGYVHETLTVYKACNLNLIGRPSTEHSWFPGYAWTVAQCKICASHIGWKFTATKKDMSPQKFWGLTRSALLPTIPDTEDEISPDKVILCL", "T1 sequence (Q9UKS7 whole entry)": "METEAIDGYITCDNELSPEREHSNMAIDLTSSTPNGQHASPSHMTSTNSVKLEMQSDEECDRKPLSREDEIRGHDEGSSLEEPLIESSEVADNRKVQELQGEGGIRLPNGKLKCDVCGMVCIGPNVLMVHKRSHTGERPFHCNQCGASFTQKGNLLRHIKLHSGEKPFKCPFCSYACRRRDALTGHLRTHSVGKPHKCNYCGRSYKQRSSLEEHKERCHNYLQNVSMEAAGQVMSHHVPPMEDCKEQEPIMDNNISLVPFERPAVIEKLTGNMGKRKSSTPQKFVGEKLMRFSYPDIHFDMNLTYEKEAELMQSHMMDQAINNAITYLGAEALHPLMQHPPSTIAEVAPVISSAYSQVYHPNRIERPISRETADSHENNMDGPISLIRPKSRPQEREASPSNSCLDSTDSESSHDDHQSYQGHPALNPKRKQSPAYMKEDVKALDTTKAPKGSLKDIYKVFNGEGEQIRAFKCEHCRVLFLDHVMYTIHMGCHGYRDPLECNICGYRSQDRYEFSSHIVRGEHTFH", "experiment": "TR-FRET dimerization assay (CRBN-IKZF2 ternary complex formation)", "format": "binding", "settings": "n=1", "summary_of_the_method": "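Compound-induced IKZF2 recruitment to CRBN was read as the 520/490 nm TR-FRET ratio after 15 min at rt. The mix held biotinylated IKZF2, BODIPY-labeled CRBN bound to DDB1 lacking the BPB propeller, tracer Tb-streptavidin and compound titrations; n=1, from ≥3 technical replicates per well.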"}, "IKZF1": {"target": "T2, IKZF1 (Homo sapiens, UniProt Q13422)", "T2 construct": "expressed in transfected cells; host or cells: Flp-In 293", "T2 sequence (Q13422 83-213 isoform Q13422-7 limits assumed)": "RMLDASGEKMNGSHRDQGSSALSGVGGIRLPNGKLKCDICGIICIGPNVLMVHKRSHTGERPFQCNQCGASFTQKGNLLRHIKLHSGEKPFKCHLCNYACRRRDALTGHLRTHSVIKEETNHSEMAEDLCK", "T2 sequence (Q96SW2 whole entry partner, the tested form may be a part)": "as the sequence (Q96SW2 whole entry) above", "T2 sequence (Q16531 2-1140 partner limits assumed)": "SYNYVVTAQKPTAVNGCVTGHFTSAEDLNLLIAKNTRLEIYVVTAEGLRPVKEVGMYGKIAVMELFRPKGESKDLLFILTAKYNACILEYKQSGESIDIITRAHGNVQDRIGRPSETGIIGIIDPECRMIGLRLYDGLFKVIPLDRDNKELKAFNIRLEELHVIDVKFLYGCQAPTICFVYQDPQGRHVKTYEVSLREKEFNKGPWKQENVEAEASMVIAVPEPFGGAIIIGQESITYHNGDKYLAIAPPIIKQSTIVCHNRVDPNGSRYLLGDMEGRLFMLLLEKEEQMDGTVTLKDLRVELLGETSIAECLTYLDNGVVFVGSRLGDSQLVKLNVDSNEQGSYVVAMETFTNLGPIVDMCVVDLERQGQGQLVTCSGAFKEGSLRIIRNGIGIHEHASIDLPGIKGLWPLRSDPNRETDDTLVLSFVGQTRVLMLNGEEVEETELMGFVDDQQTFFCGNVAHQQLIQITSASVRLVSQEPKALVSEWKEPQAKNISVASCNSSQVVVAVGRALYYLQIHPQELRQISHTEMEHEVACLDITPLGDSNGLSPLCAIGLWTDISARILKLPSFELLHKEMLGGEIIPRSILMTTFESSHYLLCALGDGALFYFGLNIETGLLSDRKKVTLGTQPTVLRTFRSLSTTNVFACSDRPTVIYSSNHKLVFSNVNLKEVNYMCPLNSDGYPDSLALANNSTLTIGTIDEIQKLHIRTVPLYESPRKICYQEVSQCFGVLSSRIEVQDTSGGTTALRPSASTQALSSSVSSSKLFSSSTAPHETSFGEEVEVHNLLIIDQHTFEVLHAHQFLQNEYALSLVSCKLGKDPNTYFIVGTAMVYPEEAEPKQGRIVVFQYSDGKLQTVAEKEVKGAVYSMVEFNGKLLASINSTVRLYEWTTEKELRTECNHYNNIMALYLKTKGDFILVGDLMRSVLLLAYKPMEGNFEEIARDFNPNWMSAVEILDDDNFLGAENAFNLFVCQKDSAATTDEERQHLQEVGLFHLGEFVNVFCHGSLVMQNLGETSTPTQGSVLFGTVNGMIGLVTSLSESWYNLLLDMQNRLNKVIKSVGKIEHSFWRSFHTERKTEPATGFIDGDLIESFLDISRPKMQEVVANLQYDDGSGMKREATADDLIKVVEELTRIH", "experiment": "Cellular degradation assay, eGFP-IKZF1Δ fusion with mCherry reporter in Flp-In 293 cells", "format": "cell-based", "settings": "5 h incubation, n=1", "summary_of_the_method": "as §1"}, "GSPT1": {"target": "GSPT1 (Homo sapiens, UniProt P15170+Q96SW2)", "sequence (P15170 whole entry, the tested form may be a part)": "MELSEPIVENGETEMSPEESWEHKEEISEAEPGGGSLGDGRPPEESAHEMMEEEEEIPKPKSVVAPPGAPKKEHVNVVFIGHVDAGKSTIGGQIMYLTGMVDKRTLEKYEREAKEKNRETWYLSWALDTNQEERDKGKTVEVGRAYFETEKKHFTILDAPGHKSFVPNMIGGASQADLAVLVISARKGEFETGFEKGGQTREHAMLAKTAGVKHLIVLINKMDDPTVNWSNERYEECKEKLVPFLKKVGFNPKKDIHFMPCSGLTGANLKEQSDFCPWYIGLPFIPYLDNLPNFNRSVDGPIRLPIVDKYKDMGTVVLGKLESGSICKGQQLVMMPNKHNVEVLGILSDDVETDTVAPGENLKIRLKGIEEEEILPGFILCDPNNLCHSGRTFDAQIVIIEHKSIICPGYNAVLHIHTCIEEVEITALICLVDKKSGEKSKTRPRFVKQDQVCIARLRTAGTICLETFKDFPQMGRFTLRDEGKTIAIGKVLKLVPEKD", "sequence (Q96SW2 whole entry, the tested form may be a part)": "as the sequence (Q96SW2 whole entry) above", "sequence (Q16531 whole entry partner, the tested form may be a part)": "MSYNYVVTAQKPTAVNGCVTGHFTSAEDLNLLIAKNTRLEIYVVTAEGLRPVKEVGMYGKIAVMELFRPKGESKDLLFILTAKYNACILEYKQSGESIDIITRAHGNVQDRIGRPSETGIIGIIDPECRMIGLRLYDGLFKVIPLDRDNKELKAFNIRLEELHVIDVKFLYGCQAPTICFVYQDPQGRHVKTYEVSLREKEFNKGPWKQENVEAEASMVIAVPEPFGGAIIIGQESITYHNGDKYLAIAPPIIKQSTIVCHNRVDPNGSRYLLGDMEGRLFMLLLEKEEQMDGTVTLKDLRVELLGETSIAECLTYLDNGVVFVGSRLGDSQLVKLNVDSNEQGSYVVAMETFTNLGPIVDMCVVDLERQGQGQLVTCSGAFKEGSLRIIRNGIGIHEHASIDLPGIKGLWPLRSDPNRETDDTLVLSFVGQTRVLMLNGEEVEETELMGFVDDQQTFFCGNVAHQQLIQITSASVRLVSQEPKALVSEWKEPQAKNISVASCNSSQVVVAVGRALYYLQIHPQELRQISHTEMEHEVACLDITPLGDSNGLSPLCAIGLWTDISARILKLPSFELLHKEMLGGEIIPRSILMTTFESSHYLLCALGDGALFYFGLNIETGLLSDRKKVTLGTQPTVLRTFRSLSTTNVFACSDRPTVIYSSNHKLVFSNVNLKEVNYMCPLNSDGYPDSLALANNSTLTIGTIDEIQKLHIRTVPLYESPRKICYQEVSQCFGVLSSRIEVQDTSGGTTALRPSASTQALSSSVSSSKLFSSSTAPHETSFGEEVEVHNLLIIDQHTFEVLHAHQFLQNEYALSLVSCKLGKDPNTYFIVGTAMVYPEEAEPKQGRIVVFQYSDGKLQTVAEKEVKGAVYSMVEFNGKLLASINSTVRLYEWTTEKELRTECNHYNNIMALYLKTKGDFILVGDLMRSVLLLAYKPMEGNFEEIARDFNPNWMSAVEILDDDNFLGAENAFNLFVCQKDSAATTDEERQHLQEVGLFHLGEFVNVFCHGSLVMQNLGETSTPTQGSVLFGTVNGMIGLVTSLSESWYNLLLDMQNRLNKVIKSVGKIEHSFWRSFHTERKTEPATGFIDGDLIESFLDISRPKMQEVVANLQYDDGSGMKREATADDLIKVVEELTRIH", "experiment": "Cellular degradation assay, eGFP-GSPT1 fusion with mCherry reporter in Flp-In 293 cells", "format": "cell-based", "design": "expressed in transfected cells; host or cells: Flp-In 293", "settings": "5 h incubation, n=1", "summary_of_the_method": "as §1"}, "SALL4 ZNF1-2": {"target": "T3, SALL4 ZNF1-2 (Homo sapiens, UniProt Q96SW2+Q9UJQ4)", "T3 construct": "IKZF1Δ, IKZF2Δ, GSPT1 and SALL4 ZnF1-2 were subcloned; expressed in transfected cells; host or cells: Flp-In 293", "T3 sequence (Q9UJQ4 378-438 limits assumed)": "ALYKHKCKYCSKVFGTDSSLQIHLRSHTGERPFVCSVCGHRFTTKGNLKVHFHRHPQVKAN", "T3 sequence (Q96SW2 whole entry, the tested form may be a part)": "as the sequence (Q96SW2 whole entry) above", "T3 sequence (Q16531 whole entry partner, the tested form may be a part)": "as the sequence (Q16531 whole entry partner, the tested form may be a part) above", "experiment": "Cellular degradation assay, eGFP-SALL4 ZnF1-2 fusion with mCherry reporter in Flp-In 293 cells", "format": "cell-based", "settings": "5 h incubation, n=1", "summary_of_the_method": "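Read-out is the ratio of GFP-positive to mCherry-positive cells per well, imaged at 488 and 561 nm right after 5-hour compound exposure (normalised to 0.5% DMSO). Cells: Flp-In 293 stably carrying eGFP-P2A-mCherry construct fused to SALL4 ZnF1-2.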"}, "[1]": {"settings": "compound concentration 2.00E−05"}, "[2]": {"settings": "compound concentration 2.00E−06"}, "[3]": {"settings": "compound concentration 2.00E−07"}, "[4]": {"settings": "compound concentration 6.6667E−05"}, "[5]": {"settings": "compound concentration 6.6667E−06"}, "[6]": {"settings": "compound concentration 6.6667E−07 (667 nM)"}}}
{"smiles": "O=C1CCC(N2C(=O)C=C(Nc3cccc(-c4cc[nH]n4)c3)C2=O)C(=O)N1", "note": "(stereo not drawn) [Compound 31, 3-(3-((3-(1H-pyrazol-3-yl)phenyl)amino)-2,5-dioxo-2,5-dihydro-1H-pyrrol-1-yl)piperidine-2,6-dione]", "values": [{"measurement": "IKZF2 GFP/RFP Relative Abundance", "setting": "IKZF2; [1]", "value": 0.494}, {"measurement": "IKZF2 GFP/RFP Relative Abundance", "setting": "IKZF2; [2]", "value": 0.638}, {"measurement": "IKZF2 GFP/RFP Relative Abundance", "setting": "IKZF2; [3]", "value": 0.766}, {"measurement": "TR-FRET-IKZF2 (Normalized to CC-885)", "setting": "CRBN and Helios (IKZF2); [4]", "value": 0.628}, {"measurement": "TR-FRET-IKZF2 (Normalized to CC-885)", "setting": "CRBN and Helios (IKZF2); [5]", "value": 0.521}, {"measurement": "TR-FRET-IKZF2 (Normalized to CC-885)", "setting": "CRBN and Helios (IKZF2); [6]", "value": 0.434}, {"measurement": "IKZF1 GFP/RFP Relative Abundance", "setting": "IKZF1; [1]", "value": 0.254}, {"measurement": "IKZF1 GFP/RFP Relative Abundance", "setting": "IKZF1; [2]", "value": 0.290}, {"measurement": "IKZF1 GFP/RFP Relative Abundance", "setting": "IKZF1; [3]", "value": 0.399}, {"measurement": "GSPT1 GFP/RFP Relative Abundance", "setting": "GSPT1; [1]", "value": 0.666}, {"measurement": "GSPT1 GFP/RFP Relative Abundance", "setting": "GSPT1; [2]", "value": 1.197}, {"measurement": "GSPT1 GFP/RFP Relative Abundance", "setting": "GSPT1; [3]", "value": 1.240}, {"measurement": "SALL4 ZNF1-2 GFP/RFP Relative Abundance", "setting": "SALL4 ZNF1-2; [1]", "value": 0.755}, {"measurement": "SALL4 ZNF1-2 GFP/RFP Relative Abundance", "setting": "SALL4 ZNF1-2; [2]", "value": 0.626}, {"measurement": "SALL4 ZNF1-2 GFP/RFP Relative Abundance", "setting": "SALL4 ZNF1-2; [3]", "value": 0.713}]}
{"smiles": "O=C1CCC(N2C(=O)C=C(Nc3ccc4cn[nH]c4c3)C2=O)C(=O)N1", "note": "(stereo not drawn) [Compound 32, 3-(3-((1H-indazol-6-yl)amino)-2,5-dioxo-2,5-dihydro-1H-pyrrol-1-yl)piperidine-2,6-dione]", "values": [{"measurement": "IKZF2 GFP/RFP Relative Abundance", "setting": "IKZF2; [1]", "value": 1.008}, {"measurement": "IKZF2 GFP/RFP Relative Abundance", "setting": "IKZF2; [2]", "value": 0.941}, {"measurement": "IKZF2 GFP/RFP Relative Abundance", "setting": "IKZF2; [3]", "value": 0.958}, {"measurement": "TR-FRET-IKZF2 (Normalized to CC-885)", "setting": "CRBN and Helios (IKZF2); [4]", "value": 0.274}, {"measurement": "TR-FRET-IKZF2 (Normalized to CC-885)", "setting": "CRBN and Helios (IKZF2); [5]", "value": 0.213}, {"measurement": "TR-FRET-IKZF2 (Normalized to CC-885)", "setting": "CRBN and Helios (IKZF2); [6]", "value": 0.210}, {"measurement": "IKZF1 GFP/RFP Relative Abundance", "setting": "IKZF1; [1]", "value": 0.748}, {"measurement": "IKZF1 GFP/RFP Relative Abundance", "setting": "IKZF1; [2]", "value": 0.795}, {"measurement": "IKZF1 GFP/RFP Relative Abundance", "setting": "IKZF1; [3]", "value": 0.832}, {"measurement": "GSPT1 GFP/RFP Relative Abundance", "setting": "GSPT1; [1]", "value": 0.646}, {"measurement": "GSPT1 GFP/RFP Relative Abundance", "setting": "GSPT1; [2]", "value": 0.855}, {"measurement": "GSPT1 GFP/RFP Relative Abundance", "setting": "GSPT1; [3]", "value": 0.970}, {"measurement": "SALL4 ZNF1-2 GFP/RFP Relative Abundance", "setting": "SALL4 ZNF1-2; [1]", "value": 1.008}, {"measurement": "SALL4 ZNF1-2 GFP/RFP Relative Abundance", "setting": "SALL4 ZNF1-2; [2]", "value": 0.889}, {"measurement": "SALL4 ZNF1-2 GFP/RFP Relative Abundance", "setting": "SALL4 ZNF1-2; [3]", "value": 0.901}]}
{"smiles": "CN(C)C(=O)c1cccc(NC2=CC(=O)N(C3CCC(=O)NC3=O)C2=O)c1", "note": "(stereo not drawn) [Compound 33, 3-((1-(2,6-dioxopiperidin-3-yl)-2,5-dioxo-2,5-dihydro-1H-pyrrol-3-yl)amino)-N,N-dimethylbenzamide]", "values": [{"measurement": "IKZF2 GFP/RFP Relative Abundance", "setting": "IKZF2; [1]", "value": 0.372}, {"measurement": "IKZF2 GFP/RFP Relative Abundance", "setting": "IKZF2; [2]", "value": 0.521}, {"measurement": "IKZF2 GFP/RFP Relative Abundance", "setting": "IKZF2; [3]", "value": 0.570}, {"measurement": "TR-FRET-IKZF2 (Normalized to CC-885)", "setting": "CRBN and Helios (IKZF2); [4]", "value": 0.584}, {"measurement": "TR-FRET-IKZF2 (Normalized to CC-885)", "setting": "CRBN and Helios (IKZF2); [5]", "value": 0.491}, {"measurement": "TR-FRET-IKZF2 (Normalized to CC-885)", "setting": "CRBN and Helios (IKZF2); [6]", "value": 0.452}, {"measurement": "IKZF1 GFP/RFP Relative Abundance", "setting": "IKZF1; [1]", "value": 0.339}, {"measurement": "IKZF1 GFP/RFP Relative Abundance", "setting": "IKZF1; [2]", "value": 0.413}, {"measurement": "IKZF1 GFP/RFP Relative Abundance", "setting": "IKZF1; [3]", "value": 0.445}, {"measurement": "GSPT1 GFP/RFP Relative Abundance", "setting": "GSPT1; [1]", "value": 0.944}, {"measurement": "GSPT1 GFP/RFP Relative Abundance", "setting": "GSPT1; [2]", "value": 0.952}, {"measurement": "GSPT1 GFP/RFP Relative Abundance", "setting": "GSPT1; [3]", "value": 0.956}, {"measurement": "SALL4 ZNF1-2 GFP/RFP Relative Abundance", "setting": "SALL4 ZNF1-2; [1]", "value": 0.783}, {"measurement": "SALL4 ZNF1-2 GFP/RFP Relative Abundance", "setting": "SALL4 ZNF1-2; [2]", "value": 0.813}, {"measurement": "SALL4 ZNF1-2 GFP/RFP Relative Abundance", "setting": "SALL4 ZNF1-2; [3]", "value": 0.860}]}
